Patent publication US20150018403A1, “FLUORENE-AMIDE COMPOUNDS AND PHARMACEUTICAL USE THEREOF” (JAPAN TOBACCO INC., priority 2013, published 2015)

Assays:
human PDHK2 (hPDHK2) = molecular target: T1, human PDHK2 (hPDHK2) (Homo sapiens, UniProt Q15119); assay: Inhibitory action of PDHK2 activity in vitro (residual PDH activity after kinase reaction); assay type: biochemical; details: PDH/hPDHK2 complex, 45 min kinase reaction at room temperature; read-out: hPDHK2 IC50
T1 construct: made in house; host or cells: Escherichia coli BL21(DE3), pET17b vector
Procedure: The inhibitory action of PDHK activity was assessed indirectly by measuring the residual PDH activity after kinase reaction in the presence of a test compound.
In the case of human PDHK2 (hPDHK2, Genbank Accession No. BC040478.1), modified hPDHK2 cDNA wherein FLAG-Tag sequence was added to the N terminus of hPDHK2 cDNA clone (pReceiver-M01/PDK2-GeneCopoeia) was prepared by PCR and cloned into a vector (pET17b-Novagen). The recombinant construct was transformed into Escherichia coli (DH5α-TOYOBO). The recombinant clones were identified, and plasmid DNA was isolated and subjected to the DNA sequence analysis. One clone which had the expected nucleic acid sequence was selected for expression work.
For expression of hPDHK2 activity, Escherichia coli strain BL21(DE3) cells (Novagen) were transformed with the pET17b vector containing modified hPDHK2 cDNA. The Escherichia coli were grown to an optical density 0.6 ([…]) at 30° C. Protein expression was induced by the addition of 500 μmol/L isopropyl-β-thiogalactopyranoside. The Escherichia coli were cultured at 30° C. for 5 hr and harvested by centrifugation. Resuspension of the Escherichia coli paste was disrupted by a microfluidizer. FLAG-Tagged protein was purified using FLAG affinity gel. The gel was washed with 20 mmol/L HEPES-NaOH, 500 mmol/L sodium chloride, 1% ethylene glycol, and 0.1% Pluronic F-68 (pH 8.0), and the binding protein was eluted with 20 mmol/L HEPES-NaOH, 100 μg/mL FLAG peptide, 500 mmol/L sodium chloride, 1% ethylene glycol, and 0.1% Pluronic F-68 (pH 8.0). The eluted fractions containing FLAG-Tagged protein were pooled, dialyzed against 20 mmol/L HEPES-NaOH, 150 mmol/L sodium chloride, 0.5 mmol/L EDTA, 1% ethylene glycol, and 0.1% Pluronic F-68 (pH 8.0), and preserved at −80° C.
0.05 U/mL PDH and 0.8 μg/mL hPDHK2 were mixed in a buffer (50 mmol/L 3-morpholinopropanesulfonic acid (pH 7.0), 20 mmol/L dipotassium hydrogen phosphate, 60 mmol/L potassium chloride, 2 mmol/L magnesium chloride, 0.4 mmol/L EDTA, and 0.2% Pluronic F-68, 2 mmol/L dithiothreitol), and the mixture was incubated at 4° C. overnight to obtain a PDH/hPDHK2 complex. The test compounds were diluted with DMSO. […] DMSO (1.5 μL) was added to control wells instead of the test compound. […] The mixture was incubated at room temperature for 90 min, and the residual PDH activity was measured. The absorbance at 340 nm before and after PDH reaction was measured using a microplate reader to detect NADH produced by the PDH reaction. The hPDHK2 inhibition rate (%) of the test compound was calculated from the formula [{(PDH activity of test compound−PDH activity of control)/PDH activity of blank−PDH activity of control)}×100].

tissue PDH activity = assay: Ex vivo PDH activation assay (liver and epididymal adipose tissue mitochondrial fractions after oral dosing); assay type: in vivo, Sprague-Dawley rats; details: 3 mg/kg, rat
Procedure: The action of test compound on tissue PDH activity was evaluated. NADH production was detected via p-iodonitrotetrazolium violet (INT)-coupled system to measure PDH activity.
Normal male Sprague-Dawley rats were randomly allocated m to the vehicle group and the test compound groups. The vehicle (0.5% aqueous methylcellulose solution, 5 mL/kg) or the test compound was orally administered to the rats. At 5 or 20 hr after administration, the rats were anesthetized with an intraperitoneal injection of sodium pentobarbital (60 mg/kg), and liver slices and epididymal adipose tissues were collected.
(§1) To the liver slices were rapidly added 9 volumes of ice-cold homogenization buffer (0.25 mol/L sucrose, 5 mmol/L tris(hydroxymethyl)aminomethane hydrochloride (pH 7.5), 2 mmol/L EDTA), and the mixtures were homogenized using a Polytron homogenizer. The homogenates were centrifuged at 600×g, 4° C. for 10 min to obtain the supernatant. The supernatants (1 mL) were centrifuged at 16,000×g, 4° C. for 10 min to collect the precipitates. The precipitates were washed by resuspension in the homogenization buffer (1 mL) and centrifuged in the same manner. The precipitates were frozen with liquid nitrogen and stored at −80° C. as the liver mitochondrial fraction.
as §1, with “adipose tissues” for “liver slices”, “3” for “9”, “of an” for “of”, “buffer,” for “buffer (0.25 mol/L sucrose, 5 mmol/L tris(hydroxymethyl)aminomethane hydrochloride (pH 7.5), 2 mmol/L EDTA),”, “supernatants” for “supernatants (1 mL)”, “adipose tissue” for “liver”
The mitochondrial fractions were thawed and suspended with the sample buffer (0.25 mol/L sucrose, 20 mmol/L tris(hydroxymethyl)aminomethane hydrochloride (pH 7.5), 50 mmol/L potassium chloride, and 1 mL/L 4-(1,1,3,3-tetramethylbutyl)phenyl-polyethylene glycol (Triton X-100)). Active PDH activity (PDHa activity) and total PDH activity (PDHt activity) were measured to evaluate the PDH activity. For the measurement of the PDHt activity, equal amounts of the mitochondrial suspension and the activation buffer (0.25 mol/L sucrose, 20 mmol/L tris(hydroxymethyl)aminomethane hydrochloride (pH 7.5), 50 mmol/L potassium chloride, 1 mL/L Triton X-100, 4 mmol/L calcium chloride, 40 mmol/L magnesium chloride, 10 mmol/L sodium dichloroacetate) were mixed, and the mixtures were incubated at 37° C. for 10 min. Forty microliters of the mitochondrial suspensions diluted with a sample buffer were added to a 96-well microplate for activity measurement and blank measurement. Then 180 μL of the reaction mixture (0.056 mmol/L potassium phosphate buffer (pH 7.5), 5.6 mmol/L DL-carnitine, 2.8 mmol/L NAD, 0.22 mmol/L thiamin pyrophosphate, 0.11 mmol/L Coenzyme A, 1.1 mL/L Triton X-100, 1.1 mmol/L magnesium chloride, 1.1 g/L bovine serum albumin, 0.67 mmol/L INT, 7.2 μmol/L phenazine methosulfate, 28 mmol/L sodium oxamate) was added to each well, and then 20 μL of 50 mmol/L sodium pyruvate for activity measurement or water for blank measurement were added. The mixtures were incubated at room temperature under shading. The absorbances at 500-750 nm, which were attributable to reduction of INT, the final electron acceptor, were measured using a microplate reader over time and the changes in the absorbance were calculated. The PDH activity was calculated by subtraction of the change in absorbance of the blank well from that of the activity measurement well. The percentage of the PDHa activity to the PDHt activity was calculated and taken as an index of the PDH activation.

[1] = Metabolic stability test in human liver microsome; assay type: in vitro ADME; details: 37° C., 5 μM
Procedure: Human liver microsome (manufactured by Xenotech, H0620, final concentration (after dilution), 0.2 mg protein/mL) was suspended in 100 mM potassium phosphate buffer (pH 7.4, containing β-nicotinamide adenine dinucleotide phosphate: 1.3 mM, D-glucose-6-phosphate: 3.3 mM, magnesium chloride: 3.3 mM, glucose-6-phosphate dehydrogenase: 0.45 U/mL), and further mixed with a test compound dissolved in MeCN/DMSO (95/5) (final concentration 5 μM). The mixture was incubated at 37° C. for 10 min and 60 min, acetonitrile containing formic acid (final concentration 0.1%) was added, and the mixture was centrifuged. The test compound (unmodified) in the supernatant was measured by high performance liquid chromatography/mass spectrometry (LC/MS) (manufactured by Waters, LC: Acquity UPLC, MS:SQ Detector or TQ Detector). The residual ratio (%) was calculated from the obtained measurement value.

[2] = Metabolic stability test in rat liver microsome; assay type: in vitro ADME
hERG = molecular target: T2, hERG (Homo sapiens, UniProt Q12809); assay: hERG whole cell patch clamp test; assay type: cell-based; details: human, HEK293 cells transfected with hERG, pH 7.4, read-out: hERG inhibition rate (%); for inhibition at 3 μmol/L: concentration 3 μmol/L; for inhibition at 30 μmol/L: concentration 30 μmol/L
T2 construct: host or cells: HEK293
T2 sequence (Q12809 whole entry): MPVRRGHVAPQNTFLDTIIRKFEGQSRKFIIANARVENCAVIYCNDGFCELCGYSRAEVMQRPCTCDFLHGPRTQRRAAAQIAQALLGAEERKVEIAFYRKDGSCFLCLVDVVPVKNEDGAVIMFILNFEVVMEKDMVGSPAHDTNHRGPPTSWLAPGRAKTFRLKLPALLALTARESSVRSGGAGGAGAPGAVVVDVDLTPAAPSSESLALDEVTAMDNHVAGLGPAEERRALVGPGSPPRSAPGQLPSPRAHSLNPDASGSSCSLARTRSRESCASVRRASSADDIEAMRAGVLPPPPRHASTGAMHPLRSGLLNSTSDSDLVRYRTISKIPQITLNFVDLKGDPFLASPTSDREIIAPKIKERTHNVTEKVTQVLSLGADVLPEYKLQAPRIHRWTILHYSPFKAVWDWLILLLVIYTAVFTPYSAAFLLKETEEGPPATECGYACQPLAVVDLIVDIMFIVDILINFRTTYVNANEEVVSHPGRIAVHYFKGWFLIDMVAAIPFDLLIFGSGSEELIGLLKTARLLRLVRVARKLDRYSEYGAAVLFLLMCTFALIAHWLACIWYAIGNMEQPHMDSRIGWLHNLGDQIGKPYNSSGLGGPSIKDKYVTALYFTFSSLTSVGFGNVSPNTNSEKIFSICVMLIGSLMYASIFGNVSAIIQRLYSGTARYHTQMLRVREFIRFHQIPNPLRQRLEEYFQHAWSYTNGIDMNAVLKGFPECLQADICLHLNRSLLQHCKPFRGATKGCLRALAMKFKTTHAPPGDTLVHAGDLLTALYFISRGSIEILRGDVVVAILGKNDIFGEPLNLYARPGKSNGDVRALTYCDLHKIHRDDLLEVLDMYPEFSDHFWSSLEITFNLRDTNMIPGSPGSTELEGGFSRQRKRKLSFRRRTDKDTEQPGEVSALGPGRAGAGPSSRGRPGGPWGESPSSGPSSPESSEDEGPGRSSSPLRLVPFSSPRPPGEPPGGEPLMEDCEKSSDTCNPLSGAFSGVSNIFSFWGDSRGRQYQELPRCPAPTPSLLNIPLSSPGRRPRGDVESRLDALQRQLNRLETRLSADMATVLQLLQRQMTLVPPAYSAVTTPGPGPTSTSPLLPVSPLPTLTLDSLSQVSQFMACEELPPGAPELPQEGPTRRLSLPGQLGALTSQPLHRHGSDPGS
Procedure: (§2) Using human ether-a-go-go related gene (hERG)-transfected HEK293 cells (Cytomyx Limited), an influence on hERG current was examined according to the whole cell patch clamp technique. The hERG-transfected HEK293 cells were passaged using a CO2 incubator (BNA-111, TABAI ESPEC CORP.) under the set conditions of 37° C., 5% CO2, saturated humidity. Culture containers used were Collagen Type I Coated 75 cm^2 flask (4123-010, AGC TECHNO GLASS CO., Ltd.) and Collagen Type I Coated 35 mm culture dish (4000-010, AGC TECHNO GLASS CO., Ltd.). The culture medium used was E-MEM (Eagle Minimum Essential Medium (Earle's Salts, Nikken biomedical laboratory) added with 10% FCS (Fetal bovine serum, BioWest, L.L.C.) and 1% MEM Non-Essential Amino Acids Solution (NEAA, Invitrogen Corporation). Geneticin for the selection of hERG gene expressing cells was added thereto to a concentration of 400 μg/mL. As the cells for the measurement, 3×10^4 hERG-transfected HEK293 cells were plated on a 35 mm culture dish 4 to 7 days before measurement of the hERG current. The culture dish produced for the measurement contained the above-mentioned culture medium without geneticin (Invitrogen Corporation).
(§3) The highest evaluation concentration of each compound was determined from the highest concentration at which precipitation was not found in the standard extracellular fluid (NaCl: 140 mmol/L, KCl: 2.5 mmol/L, MgCl2: 2 mmol/L, CaCl2: 2 mmol/L, HEPES: 10 mmol/L, glucose: 10 mmol/L (adjusted to pH 7.4 with Tris-base)). As the application method, each solution to be applied was ejected from a Y-tube having a tip diameter of about 0.25 mm, which was adjacent (about 2 mm) to the cells, and applied to the cells. The ejection rate was about 0.4 mL/min.
(§4) The experiment was performed at room temperature under a phase contrast microscope. The 35 mm culture dish plated with the cells was set on a measurement apparatus, and the standard extracellular fluid was continuously applied to the cells from the Y-tube. A glass electrode for the measurement was filled with an intracellular fluid (Potassium Gluconate: 130 mmol/L, KCl: 20 mmol/L, MgCl2: 1 mmol/L, ATP-Mg: 5 mmol/L, EGTA: 3.5 mmol/L, HEPES: 10 mmol/L (adjusted to pH 7.2 with Tris-base)). A conventional whole cell patch clamp method was applied to the cells, and the maintenance electric potential was set to −80 mV. Under a fixed electric potential, the whole cell current was amplified by an amplifier for patch clamp (AXOPATCH-200B, Axon Instruments, Inc.), and the data was loaded into a computer (IMC-P642400, Intermedical Co., Ltd.) using a data acquisition analysis software (pCLAMP 9.2, Axon Instruments, Inc.).
(§5) The measurement of the hERG current was performed in the following two steps. In both cases, the hERG current was initiated by giving a command potential (maintenance electric potential −80 mV, prepulse+20 mV, 1.5 sec, test-pulse −50 mV, 1.5 sec).
(§6) Step (1): The above-mentioned command potential was given at 0.1 Hz for 2 min.
(§7) Step (2): The above-mentioned command potential was subjected to P/3 subtraction of pCLAMP 9.2 to remove leak current. This was repeated three times and an average thereof was taken as hERG current.
(§8) Subsequent to step (1), Step (2) was performed (about 3 min), and the maximum tail current obtained by applying a test-pulse to the hERG current obtained by the method of step (2) was taken as hERG current value. Hereafter, the operations of (1) and (2) were alternately repeated until completion of the experiment and the hERG current value was measured.
(§9) Stable hERG current value was recorded three times (about 10 min), and the standard extracellular fluid was instantaneously exchanged with each application fluid. The hERG current value was measured three times (about 10 min) in the same manner during perfusion of the application fluid, and the current value obtained by the 3rd measurement was taken as hERG current value after perfusion of the application fluid. […]

[3] = molecular target: T3, hERG current (hERG-transfected HEK293 cells) (Homo sapiens, UniProt Q12809); assay: hERG whole cell patch clamp test; assay type: cell-based; details: whole cell patch clamp, hERG-transfected HEK293 cells
T3 construct: host or cells: HEK293
T3 sequence (Q12809 whole entry): as above
Procedure: as §2, §3, §4, §5, §6, §7, §8, §9

Row | IC50 (human PDHK2 (hPDHK2)) [µM] | stability in liver microsome (residual ratio %) ([1]; 10 min) [%] | stability in liver microsome (residual ratio %) ([1]; 60 min) [%] | stability in liver microsome (residual ratio %) ([2]; 10 min) [%] | stability in liver microsome (residual ratio %) ([2]; 60 min) [%] | Structure (SMILES) | PDHa activity (% PDHt activity) (tissue PDH activity; adipose tissue, 5 hr after oral administration) | PDHa activity (% PDHt activity) (tissue PDH activity; adipose tissue, 20 hr after oral administration) | PDHa activity (% PDHt activity) (tissue PDH activity; liver, 5 hr after oral administration) | PDHa activity (% PDHt activity) (tissue PDH activity; liver, 20 hr after oral administration) | inhibition at 3 μmol/L (hERG) [%] | inhibition at 30 μmol/L (hERG) [%] | IC50 [3] [µM]
1 | 0.0047 | 98.3 | 99.7 | 99.2 | 99.8 | C[C@@H](O)COc1cc(-c2cnn(C(C)(C)C(N)=O)c2)c2c(c1)[C@@](O)(C(F)(F)F)c1ccccc1-2 [compound (3), 2-(4-{(9R)-9-hydroxy-2-[(2R)-2-hydroxypropoxy]-9-(trifluoromethyl)-9H-fluoren-4-yl}-1H-pyrazol-1-yl)-2-methylpropanamide] | 59 ± 8 | 54 | 74 ± 11 | 42 | – | – | –
2 | – | – | – | – | – | CC(C)(O)COc1cc(-c2cnn(CCO)c2)c2c(c1)[C@@](O)(C(F)(F)F)c1ccccc1-2 [compound (C), (9R)-4-[1-(2-Hydroxyethyl)-1H-pyrazol-4-yl]-2-(2-hydroxy-2-methylpropoxy)-9-(trifluoromethyl)-9H-fluoren-9-ol] | – | – | – | – | 11.5 | 69 | 13.2
3 | – | – | – | – | – | CC(C)(C(N)=O)n1cc(-c2cc(F)cc3c2-c2ccccc2[C@]3(O)C(F)(F)F)cn1 [compound (D), 2-{4-[(9R)-2-Fluoro-9-hydroxy-9-(trifluoromethyl)-9H-fluoren-4-yl]-1H-pyrazol-1-yl}-2-methylpropanamide] | – | – | – | – | 9.4 | 67.5 | 14.2
